Measured values taken from US10472364B2 (Calithera Biosciences, Inc., priority 2016, dated 2019).
pIC50: −log10 of the molar value.

target: endogenous, cell-bound CD73 on SK-MEL-28 cells (Homo sapiens (Human), UniProt P21589); experiment: Inhibition of endogenous, cell-bound CD73 enzyme activity in SK-MEL-28 cells (Malachite Green); type: cell-based; conditions: 100 μM AMP, 30 minutes at room temperature
Description: The day before the experiment, 5000 cells were plated per well in a 96-well plate. Cells were washed twice with […] reaction buffer (20 mM HEPES, pH 7.4, 125 mM NaCl, 1 mM KCl, 2 mM MgCl2, 10 mM glucose) to remove residual inorganic phosphate. After washing, assays contained serial dilutions of test compounds and 100 μM of AMP in a total volume of 200 μL reaction buffer, with a final DMSO concentration≤0.5%. After 30 minutes at room temperature, supernatant was removed from the cells. […] The concentration of inorganic phosphate was determined using a phosphate standard curve to determine IC50.

Chain of endogenous, cell-bound CD73 on SK-MEL-28 cells (P21589 27-574): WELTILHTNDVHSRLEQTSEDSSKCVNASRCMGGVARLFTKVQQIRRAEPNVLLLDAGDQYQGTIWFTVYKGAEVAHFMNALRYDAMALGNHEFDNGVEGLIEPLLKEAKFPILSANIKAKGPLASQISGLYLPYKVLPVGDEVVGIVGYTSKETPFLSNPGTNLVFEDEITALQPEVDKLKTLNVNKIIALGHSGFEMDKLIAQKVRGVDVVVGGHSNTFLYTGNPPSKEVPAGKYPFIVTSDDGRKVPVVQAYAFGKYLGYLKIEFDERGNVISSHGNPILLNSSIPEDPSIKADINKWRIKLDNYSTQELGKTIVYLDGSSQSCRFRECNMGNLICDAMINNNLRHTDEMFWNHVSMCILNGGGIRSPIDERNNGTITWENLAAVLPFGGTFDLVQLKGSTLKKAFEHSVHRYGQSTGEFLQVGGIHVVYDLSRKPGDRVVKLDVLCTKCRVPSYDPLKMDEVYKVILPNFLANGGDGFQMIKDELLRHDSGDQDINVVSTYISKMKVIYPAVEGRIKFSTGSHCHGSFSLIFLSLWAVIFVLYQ

First: Nc1nc(Cl)nc2c1ncn2[C@@H]1O[C@H](COC(Cc2ccc(C(F)(F)F)o2)(C(=O)O)C(=O)O)[C@@H](O)[C@@H]1F [compound 59, 2-(((2R,3R,4S,5R)-5-(6-amino-2-chloro-9H-purin-9-yl)-4-fluoro-3-hydroxytetrahydro-furan-2-yl)methoxy)-2-((5-(trifluoromethyl)-furan-2-yl)methyl)malonic acid]
Second: Nc1nc(Cl)nc2c1ncn2[C@@H]1O[C@H](COC(Cc2ccc(C(F)(F)F)cc2)(C(=O)O)C(=O)O)[C@@H](O)[C@@H]1F [compound 20, 2-(((2R,3R,4S,5R)-5-(6-amino-2-chloro-9H-purin-9-yl)-4-fluoro-3-hydroxytetrahydrofuran-2-yl)methoxy)-2-(4-(trifluoromethyl)benzyl)malonic acid]
The pIC50 of the first is 1.05 log units lower: 5.16 for the first, 6.21 for the second. The second is the more potent here.

Going from `N#Cc1ccc(CC(OC[C@H]2O[C@@H](n3cnc4c(N)nc(Cl)nc43)[C@@H](F)[C@@H]2O)(C(=O)O)C(=O)O)cc1` [compound 34] to `Nc1nc(Cl)nc2c1ncn2[C@@H]1O[C@H](COC(Cc2ccc(F)cc2)(C(=O)O)C(=O)O)[C@@H](O)[C@@H]1F` [compound 47], the pIC50 falls from 6.82 to 6.17 (0.65 log units). The first is the more potent here.

First: N#Cc1cccc(CC(OC[C@H]2O[C@@H](n3cnc4c(N)nc(N=[N+]=[N-])nc43)[C@@H](F)[C@@H]2O)(C(=O)O)C(=O)O)c1 [compound 40, 2-(((2R,3R,4S,5R)-5-(6-amino-2-azido-9H-purin-9-yl)-4-fluoro-3-hydroxytetrahydrofuran-2-yl)methoxy)-2-(3-cyanobenzyl)malonic acid]
Second: N#Cc1cccc(CC(OC[C@H]2O[C@@H](n3cnc4c(N)nc(Cl)nc43)[C@@H](F)[C@@H]2O)(C(=O)O)C(=O)O)c1 [compound 35]
The pIC50 of the first is 0.96 log units lower: 5.62 for the first, 6.58 for the second.

Compared with `Nc1nc(Cl)nc2c1ncn2[C@@H]1O[C@H](COC(Cc2ccsc2)(C(=O)O)C(=O)O)[C@@H](O)[C@@H]1F` [compound 23], `Nc1nc(Cl)nc2c1ncn2[C@@H]1O[C@H](COC(Cc2cccc(F)c2)(C(=O)O)C(=O)O)[C@@H](O)[C@@H]1F` [compound 44] is 0.32 log units lower in pIC50: 6.32 for the first, 6.00 for the second.

Going from `Nc1nc(Cl)nc2c1ncn2[C@@H]1O[C@H](COC(Cc2ccc(C(F)(F)F)nc2)(C(=O)O)C(=O)O)[C@@H](O)[C@@H]1F` [compound 32, 2-(((2R,3R,4S,5R)-5-(6-amino-2-chloro-9H-purin-9-yl)-4-fluoro-3-hydroxytetrahydrofuran-2-yl)methoxy)-2-((6-(trifluoromethyl)pyridin-3-yl)methyl)malonic acid] to `Nc1nc(Cl)nc2c1ncn2[C@@H]1O[C@H](COC(Cc2ccc(C(F)(F)F)c(F)c2)(C(=O)O)C(=O)O)[C@@H](O)[C@@H]1F` [compound 60, 2-(((2R,3R,4S,5R)-5-(6-amino-2-chloro-9H-purin-9-yl)-4-fluoro-3-hydroxytetrahydro-furan-2-yl)methoxy)-2-(3-fluoro-4-(trifluoromethyl)benzyl)malonic acid], the pIC50 rises from 5.64 to 6.29 (0.65 log units). The second is the more potent here.

First: Nc1nc(Cl)nc2c1ncn2[C@@H]1O[C@H](COC(Cc2ccc(-c3nnn[nH]3)cc2)(C(=O)O)C(=O)O)[C@@H](O)[C@@H]1F [compound 54, 2-(4-(1H-tetrazol-5-yl)benzyl)-2-(((2R,3R,4S,5R)-5-(6-amino-2-chloro-9H-purin-9-yl)-4-fluoro-3-hydroxytetrahydro-furan-2-yl)methoxy)malonic acid]
Second: Nc1nc(Cl)nc2c1ncn2[C@@H]1O[C@H](COC(Cc2ccc(CO)cc2)(C(=O)O)C(=O)O)[C@@H](O)[C@@H]1F [compound 39]
The pIC50 of the first is 0.30 log units lower: 6.01 for the first, 6.31 for the second. The second is the more potent here.

`Nc1nc(Cl)nc2c1ncn2[C@@H]1O[C@H](COC(Cc2ccc3ccccc3c2)(C(=O)O)C(=O)O)[C@@H](O)[C@@H]1F` [compound 17, 2-(((2R,3R,4S,5R)-5-(6-amino-2-chloro-9H-purin-9-yl)-4-fluoro-3-hydroxytetrahydrofuran-2-yl)methoxy)-2-(naphthalen-2-ylmethyl)malonic acid] and `Nc1nc(Cl)nc2c1ncn2[C@@H]1O[C@H](COC(Cc2cccc(Oc3ccccc3)c2)(C(=O)O)C(=O)O)[C@@H](O)[C@@H]1F` [compound 13, 2-(((2R,3R,4S,5R)-5-(6-amino-2-chloro-9H-purin-9-yl)-4-fluoro-3-hydroxytetrahydrofuran-2-yl)methoxy)-2-(3-phenoxybenzyl)malonic acid] are within 0.2 log units of each other in pIC50: 5.74 for the first, 5.66 for the second.

First: Nc1nc(Cl)nc2c1ncn2[C@@H]1O[C@H](COC(Cc2ccccc2)(C(=O)O)C(=O)O)[C@@H](O)[C@H]1N [compound 55, 2-(((2R,3S,4R,5R)-4-amino-5-(6-amino-2-chloro-9H-purin-9-yl)-3-hydroxytetrahydrofuran-2-yl)methoxy)-2-benzylmalonic acid]
Second: Nc1cccc(CC(OC[C@H]2O[C@@H](n3cnc4c(N)nc(Cl)nc43)[C@@H](F)[C@@H]2O)(C(=O)O)C(=O)O)c1 [compound 27]
The pIC50 of the first is lower: less than 4.30 for the first, 6.05 for the second.

First: [N-]=[N+]=Nc1nc(N)c2ncn([C@@H]3O[C@H](COC(Cc4cccc(-c5nnn[nH]5)c4)(C(=O)O)C(=O)O)[C@@H](O)[C@@H]3F)c2n1 [compound 43]
Second: Nc1nc(Cl)nc2c1ncn2[C@@H]1O[C@H](COC(Cc2cccc(C(=O)O)c2)(C(=O)O)C(=O)O)[C@@H](O)[C@@H]1F [compound 42]
The pIC50 of the first is 1.05 log units lower: 5.00 for the first, 6.05 for the second.

Going from `Nc1nc(Cl)nc2c1ncn2[C@@H]1O[C@H](COC(Cc2cnn(Cc3ccccc3)c2)(C(=O)O)C(=O)O)[C@@H](O)[C@@H]1F` [compound 63, 2-(((2R,3R,4S,5R)-5-(6-amino-2-chloro-9H-purin-9-yl)-4-fluoro-3-hydroxytetrahydro-furan-2-yl)methoxy)-2-((1-benzyl-1H-pyrazol-4-yl)methyl)malonic acid] to `Nc1nc(Cl)nc2c1ncn2[C@@H]1O[C@H](COC(Cc2ccc(OCc3ccccc3)cc2)(C(=O)O)C(=O)O)[C@@H](O)[C@@H]1F` [compound 65, 2-(((2R,3R,4S,5R)-5-(6-amino-2-chloro-9H-purin-9-yl)-4-fluoro-3-hydroxytetrahydrofuran-2-yl)methoxy)-2-(4-(benzyloxy)benzyl)malonic acid], the pIC50 rises from 5.70 to 6.71 (1.01 log units).

First: N#Cc1ccc(CC(OC[C@H]2O[C@@H](n3cnc4c(N)nc(Cl)nc43)[C@@H](F)[C@@H]2O)(C(=O)O)C(=O)O)cc1F [compound 75, 2-(((2R,3R,4S,5R)-5-(6-amino-2-chloro-9H-purin-9-yl)-4-fluoro-3-hydroxytetrahydrofuran-2-yl)methoxy)-2-(4-cyano-3-fluorobenzyl)malonic acid]
Second: Nc1nc(Cl)nc2c1ncn2[C@@H]1O[C@H](COC(Cc2ccc(Cl)cc2F)(C(=O)O)C(=O)O)[C@@H](O)[C@@H]1F [compound 80, 2-(((2R,3R,4S,5R)-5-(6-amino-2-chloro-9H-purin-9-yl)-4-fluoro-3-hydroxytetrahydrofuran-2-yl)methoxy)-2-(4-chloro-2-fluorobenzyl)malonic acid]
The pIC50 of the first is 0.75 log units lower: 6.00 for the first, 6.75 for the second.

Going from `CCOC(=O)C(Cc1ccc(OC(F)(F)F)cc1)(OC[C@H]1O[C@@H](n2cnc3c(N)nc(Cl)nc32)[C@@H](F)[C@@H]1O)C(=O)O` (single isomer, unassigned) [compound 37] to `Nc1nc(Cl)nc2c1ncn2[C@@H]1O[C@H](COC(Cc2ccc(OCC(F)(F)F)cc2)(C(=O)O)C(=O)O)[C@@H](O)[C@@H]1F` [compound 89, 2-(((2R,3R,4S,5R)-5-(6-amino-2-chloro-9H-purin-9-yl)-4-fluoro-3-hydroxytetrahydrofuran-2-yl)methoxy)-2-(4-(2,2,2-trifluoroethoxy)benzyl)malonic acid], the pIC50 rises from 6.22 to 7.15 (0.93 log units).

Compared with `COc1ccc(CC(OC[C@H]2O[C@@H](n3cnc4c(N)nc(Cl)nc43)[C@@H](F)[C@@H]2O)(C(=O)O)C(=O)O)cc1Cl` [compound 85, 2-(((2R,3R,4S,5R)-5-(6-amino-2-chloro-9H-purin-9-yl)-4-fluoro-3-hydroxytetrahydrofuran-2-yl)methoxy)-2-(3-chloro-4-methoxybenzyl)malonic acid], `Nc1nc(Cl)nc2c1ncn2[C@@H]1O[C@H](COC(CC(=O)O)(C(=O)O)C(=O)O)[C@@H](O)[C@@H]1F` [compound 19, 1-(((2R,3R,4S,5R)-5-(6-amino-2-chloro-9H-purin-9-yl)-4-fluoro-3-hydroxytetrahydrofuran-2-yl)methoxy)ethane-1,1,2-tricarboxylic acid] is 0.63 log units lower in pIC50: 5.86 for the first, 5.23 for the second.

First: CC(C)(C)OC(=O)Nc1nc(N=[N+]=[N-])nc2c1ncn2[C@@H]1O[C@H](COC(Cc2cccc(C#N)c2)(C(=O)O)C(=O)O)[C@@H](O)[C@@H]1F [compound 41]
Second: Nc1nc(Cl)nc2c1ncn2[C@@H]1O[C@H](COC(Cc2csc(C(=O)O)n2)(C(=O)O)C(=O)O)[C@@H](O)[C@@H]1F [compound 68, 2-(((2R,3R,4S,5R)-5-(6-amino-2-chloro-9H-purin-9-yl)-4-fluoro-3-hydroxytetrahydro-furan-2-yl)methoxy)-2-((2-carboxythiazol-4-yl)methyl)malonic acid]
The pIC50 of the first is 0.72 log units lower: 5.31 for the first, 6.03 for the second.

Compared with `Nc1nc(Cl)nc2c1ncn2[C@@H]1O[C@H](COC(CCCCO)(C(=O)O)C(=O)O)[C@@H](O)[C@@H]1F` [compound 18, 2-(((2R,3R,4S,5R)-5-(6-amino-2-chloro-9H-purin-9-yl)-4-fluoro-3-hydroxytetrahydrofuran-2-yl)methoxy)-2-(4-hydroxybutyl)malonic acid], `Nc1nc(Cl)nc2c1ncn2[C@@H]1O[C@H](COC(Cc2cnc(C(=O)O)s2)(C(=O)O)C(=O)O)[C@@H](O)[C@@H]1F` [compound 67, 2-(((2R,3R,4S,5R)-5-(6-amino-2-chloro-9H-purin-9-yl)-4-fluoro-3-hydroxytetrahydro-furan-2-yl)methoxy)-2-((2-carboxythiazol-5-yl)methyl)malonic acid] is 0.68 log units higher in pIC50: 5.20 for the first, 5.88 for the second. The second is the more potent here.

`COC(=O)C(Cc1ccc(-c2ccccc2)cc1)(OC[C@H]1O[C@@H](n2cnc3c(N)nc(Cl)nc32)[C@@H](F)[C@@H]1O)C(=O)O` (single isomer, unassigned) [compound 82] was tested, and the pIC50 was 5.38.
